The record followed here is patent publication US11149031B2, “Substituted N-(3-fluoropropyl)-pyrrolidine compounds, processes for their preparation and therapeutic uses thereof” (SANOFI, priority 2016, dated 2021).

In general, IC50 refers to the concentration at which inhibition is half-maximal.

The target of test [1] is His6-ERα298-554 WT (ERα ligand-binding domain) (Homo sapiens (Human), UniProt P03372). Put plainly: Test A: biochemical antagonist activity, LanthaScreen TR-FRET ERα coactivator assay, WT. Conditions: protocol with 3 nM estradiol; read-out: Antagonism WT IC50. As to the method:
(§1) Test A: Biochemical Antagonist Activity on Wild Type (WT) and Mutants
(§2) Estrogen Receptors Test A involves measuring the in vitro antagonist activity of the compounds of the invention on estrogen receptors.
(§3) The measurements of the antagonist activities were made using an estrogen receptor coactivator assay as described hereunder.
(§4) Antagonistic potency of compounds was evaluated using LanthaScreen® TR-FRET ERα Coactivator Assay (ThermoFisher) with modifications. […] The assay works in a homogeneous mix-and-read format. In a typical experiment, a 4 μL mixture of 0.5 nM His6-ERα298-554, 0.5 nM Tb-labeled His6 antibody, 250 nM PGC1a peptide, and 3 nM estradiol (or 10 nM estradiol) in 100 mM potassium phosphate, pH 7.4, 0.01% Tween-20, 0.02% NaN3, 5 mM DTT, was added to 40 nL test compound in DMSO and incubated overnight at room temperature. The TR-FRET 520:495 nm emission ratio was calculated and used to determine the IC50 value from a dose response curve fit to the 4-parameter logistic equation.

In test [2] the target is His6-ERα298-554 Y537S mutant (ERα ligand-binding domain) (Homo sapiens (Human), UniProt P03372, Y537S). Put plainly: Test A: biochemical antagonist activity, LanthaScreen TR-FRET ERα coactivator assay, Y537S mutant. Conditions: protocol with 3 nM estradiol; read-out: Antagonism Y537S IC50. As to the method: as §1, §2, §3, §4
Sequence of His6-ERα298-554 Y537S mutant (ERα ligand-binding domain) (P03372 298-554 Y537S): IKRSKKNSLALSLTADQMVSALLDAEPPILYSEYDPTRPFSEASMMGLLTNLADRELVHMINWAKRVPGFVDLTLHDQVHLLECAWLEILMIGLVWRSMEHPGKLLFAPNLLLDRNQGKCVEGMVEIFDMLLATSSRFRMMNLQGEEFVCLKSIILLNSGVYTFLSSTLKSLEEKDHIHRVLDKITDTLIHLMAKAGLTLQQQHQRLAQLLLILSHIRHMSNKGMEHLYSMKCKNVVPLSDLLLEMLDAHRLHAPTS
For orientation: In TR-FRET formats the signal depends on donor and acceptor labels being close together.

Test [3] concerns the target His6-ERα298-554 D538G mutant (ERα ligand-binding domain) (Homo sapiens (Human), UniProt P03372, D538G). Put plainly: Test A: biochemical antagonist activity, LanthaScreen TR-FRET ERα coactivator assay, D538G mutant. Conditions: protocol with 3 nM estradiol; read-out: Antagonism D538G IC50. As to the method: as §1, §2, §3, §4
In another test the target is ERα in MCF7 cells (Homo sapiens (Human), UniProt P03372). Description: Test C: estrogen receptor degradation activity, ERα in cell western assay in MCF7 cells. The note with it: for DC50: 4 hours post compound addition, ERα in cell western, read-out: Degradation IC50; for % Degradation at 3 μM: 4 hours, relative to fulvestrant. In kind it is cell-based. As to the method:
Test C: Estrogen Receptor Degradation Activity
Test C involves measuring the in vitro degradation activity of the compounds of the invention.
The measurements of the degradation activities were made using abreast cancer cell ERα in cell western assay as described hereunder.
MCF7 cells (ATCC) were seeded in 384 wells microplate (collagen coated) at concentration of >9990 cells/30 μL per well in red phenol free MEM alpha medium (invitrogen) containing 5% charcoal dextran striped FBS. The following day, 9 points serial 1:5 dilution of each compound were added to the cells in 2.5 μL at final concentrations ranging from 3-0.000018 μM or 0.1 μM for fulvestrant (using as positive control). At 4 hours post compounds addition the cells were fixed by adding 25 μL of formalin (final concentration 5% formalin containing 0.1% triton) for 10 minutes at room temperature and then washed twice with PBS. Then, 50 μL of LI-COR blocking buffer containing 0.1% Triton was added to plate for 30 minutes at room temperature. LI-COR blocking buffer was removed and cells were incubated overnight at cold room with 50 μL anti-ER rabbit monoclonal antibody (Thermo scientific MA1-39540) diluted at 1:>999 in LI-COR blocking buffer containing 0.1% tween-20. Wells which were treated with blocking but no antibody were used as background control. Wells were washed twice with PBS (0.1% tween-20) and incubated at 37° C. for 60 minutes in LI-COR (0.1% tween-20) containing goat anti-rabbit antibody Alexa 488 (1:>999) and Syto-64 a DNA dye (2 μM final concentration). Cells were then washed 3 times in PBS and scanned in ACUMEN explorer (TTP-Labtech). Integrated intensities in the green fluorescence and red fluorescence were measured to determine the levels of ERα and DNA respectively.

Sequence of His6-ERα298-554 WT (ERα ligand-binding domain) (P03372 298-554): as the sequence (P03372 298-554 Y537S) above, with S240Y counted along it
Sequence of ERα in MCF7 cells (P03372 whole entry): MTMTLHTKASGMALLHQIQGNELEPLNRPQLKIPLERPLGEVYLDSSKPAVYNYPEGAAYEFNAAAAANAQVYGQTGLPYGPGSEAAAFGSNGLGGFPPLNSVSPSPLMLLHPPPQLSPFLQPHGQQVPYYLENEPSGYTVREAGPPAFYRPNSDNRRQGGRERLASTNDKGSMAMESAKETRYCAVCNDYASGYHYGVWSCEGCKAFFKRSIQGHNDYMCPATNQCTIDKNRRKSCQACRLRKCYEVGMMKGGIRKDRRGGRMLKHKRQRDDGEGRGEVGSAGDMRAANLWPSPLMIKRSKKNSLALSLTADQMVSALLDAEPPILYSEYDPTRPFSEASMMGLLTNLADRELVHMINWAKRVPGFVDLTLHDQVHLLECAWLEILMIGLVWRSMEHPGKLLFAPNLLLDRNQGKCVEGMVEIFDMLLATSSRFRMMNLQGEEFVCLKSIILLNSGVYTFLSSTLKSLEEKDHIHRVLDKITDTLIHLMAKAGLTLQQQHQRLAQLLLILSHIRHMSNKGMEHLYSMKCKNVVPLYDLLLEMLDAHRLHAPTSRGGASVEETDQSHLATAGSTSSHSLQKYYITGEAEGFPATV
Sequence of His6-ERα298-554 D538G mutant (ERα ligand-binding domain) (P03372 298-554 D538G): as the sequence (P03372 298-554 Y537S) above, with S240Y, D241G counted along it

Take `Oc1ccc2c(c1Cl)OCCC(c1ccc3[nH]ccc3c1)=C2c1ccc(O[C@H]2CCN(CCCF)C2)cc1` [Example 114, 9-chloro-5-[4-[(3S)-1-(3-fluoropropyl)pyrrolidin-3-yl]oxyphenyl]-4-(1H-indol-5-yl)-2,3-dihydro-1-benzoxepin-8-ol]: the IC50 in test [1] is 29 nM; in test [2], 104 nM; in test [3], 178 nM. Moreover, the DC50 on ERα in MCF7 cells was 5 nM. The “% Degradation at 3 μM” value on ERα in MCF7 cells came to 71%.

Turning to `Oc1ccc2c(c1Cl)OCCC(c1ccc3c(c1)CCN3)=C2c1ccc(O[C@H]2CCN(CCCF)C2)cc1` [Example 115, 9-chloro-5-[4-[(3S)-1-(3-fluoropropyl)pyrrolidin-3-yl]oxyphenyl]-4-indolin-5-yl-2,3-dihydro-1-benzoxepin-8-ol], the figures for the IC50 in test [1], in test [2] and in test [3] were 88 nM, 200 nM and 322 nM, respectively. Further, on ERα in MCF7 cells, the DC50 turned out to be 6 nM. Moreover, the “% Degradation at 3 μM” value on ERα in MCF7 cells is recorded as 77%.

On to `Oc1ccc2c(c1)OCCC(c1cccc3c1CCN3)=C2c1ccc(O[C@H]2CCN(CCCF)C2)cc1` [Example 117, 5-[4-[(3S)-1-(3-fluoropropyl)pyrrolidin-3-yl]oxyphenyl]-4-indolin-4-yl-2,3-dihydro-1-benzoxepin-8-ol], for which the IC50 in test [1] was found to be 32 nM; in test [2], 214 nM; in test [3], 309 nM. In addition, the DC50 at ERα in MCF7 cells is 3 nM. The “% Degradation at 3 μM” value on ERα in MCF7 cells is reported as 92%.

Consider `Cc1c(O)ccc2c1OCCC(c1ccc3c(c1)CCN3)=C2c1ccc(O[C@H]2CCN(CCCF)C2)cc1` [Example 118, 5-[4-[(3S)-1-(3-fluoropropyl)pyrrolidin-3-yl]oxyphenyl]-4-indolin-5-yl-9-methyl-2,3-dihydro-1-benzoxepin-8-ol], for which the concentration for half-maximal inhibition (IC50) in test [1] was found to be 152 nM; in test [2] it was 237 nM; in test [3], 442 nM. In addition, the DC50 at ERα in MCF7 cells amounted to 126 nM. The “% Degradation at 3 μM” value at ERα in MCF7 cells was 74%.

Take `Cc1cccc(C2=C(c3ccc(O[C@H]4CCN(CCCF)C4)cc3)c3ccc(O)cc3OCC2)c1C` [Example 122, 4-(2,3-dimethylphenyl)-5-[4-[(3S)-1-(3-fluoropropyl)pyrrolidin-3-yl]oxyphenyl]-2,3-dihydro-1-benzoxepin-8-ol]: the 50% inhibitory concentration (IC50) was found to be 3 nM in test [1], 24 nM in test [2] and 41 nM in test [3]. The DC50 at ERα in MCF7 cells came out at 0.3 nM. In addition, on ERα in MCF7 cells, the “% Degradation at 3 μM” value worked out at 91%.

As to `Oc1ccc2c(c1Cl)OCCC(c1ccc3cc[nH]c3c1)=C2c1ccc(O[C@H]2CCN(CCCF)C2)cc1` [Example 123, 9-chloro-5-[4-[(3S)-1-(3-fluoropropyl)pyrrolidin-3-yl]oxyphenyl]-4-(1H-indol-6-yl)-2,3-dihydro-1-benzoxepin-8-ol], the IC50 in test [1] came out at 156 nM; in test [2], 1430 nM; in test [3] it was 2290 nM. Besides, the DC50 on ERα in MCF7 cells came out at 15 nM. In addition, the “% Degradation at 3 μM” value at ERα in MCF7 cells was 81%.

Turning to `Oc1ccc2c(c1Cl)OCCC(c1ccc3c(c1)NCC3)=C2c1ccc(O[C@H]2CCN(CCCF)C2)cc1` [Example 125, 9-chloro-5-[4-[(3S)-1-(3-fluoropropyl)pyrrolidin-3-yl]oxyphenyl]-4-indolin-6-yl-2,3-dihydro-1-benzoxepin-8-ol], the IC50 came out at 190 nM in test [1], 945 nM in test [2] and 1340 nM in test [3]. For the same compound, on ERα in MCF7 cells, the DC50 is 4 nM. In addition, the “% Degradation at 3 μM” value on ERα in MCF7 cells stood at 84%.

As for `Cc1c(F)cccc1C1=C(c2ccc(O[C@H]3CCN(CCCF)C3)cc2)c2ccc(O)cc2OCC1` [Example 126, 4-(3-fluoro-2-methyl-phenyl)-5-[4-[(3S)-1-(3-fluoropropyl)pyrrolidin-3-yl]oxyphenyl]-2,3-dihydro-1-benzoxepin-8-ol], the figures for the IC50 in test [1], in test [2] and in test [3] were 5 nM, 55 nM and 94 nM, respectively. Further, the DC50 at ERα in MCF7 cells came to 0.3 nM. At ERα in MCF7 cells, the “% Degradation at 3 μM” value is 91%.

On to `CCOc1ccc(C2=C(c3ccc(O[C@H]4CCN(CCCF)C4)cc3)c3ccc(O)cc3OCC2)cn1` [Example 127, 4-(6-ethoxy-3-pyridyl)-5-[4-[(3S)-1-(3-fluoropropyl)pyrrolidin-3-yl]oxyphenyl]-2,3-dihydro-1-benzoxepin-8-ol], for which the figures for the IC50 in test [1], in test [2] and in test [3] were 3 nM, 24 nM and 49 nM, respectively. The DC50 at ERα in MCF7 cells was found to be 0.8 nM. Moreover, the “% Degradation at 3 μM” value at ERα in MCF7 cells worked out at 90%.

Regarding `Oc1ccc2c(c1Cl)OCCC(c1cccc3c1CCN3)=C2c1ccc(O[C@H]2CCN(CCCF)C2)cc1` [Example 128, 9-chloro-5-[4-[(3S)-1-(3-fluoropropyl)pyrrolidin-3-yl]oxyphenyl]-4-indolin-4-yl-2,3-dihydro-1-benzoxepin-8-ol], the 50% inhibitory concentration (IC50) in test [1] stood at 96 nM; in test [2] it was 933 nM; in test [3], 1210 nM. In addition, the DC50 at ERα in MCF7 cells was determined as 14 nM. Also, the “% Degradation at 3 μM” value on ERα in MCF7 cells was determined as 72%.

In the case of `Cc1c(O)ccc2c1OCCC(c1cccc3[nH]ccc13)=C2c1ccc(O[C@H]2CCN(CCCF)C2)cc1` [Example 130, 5-[4-[(3S)-1-(3-fluoropropyl)pyrrolidin-3-yl]oxyphenyl]-4-(1H-indol-4-yl)-9-methyl-2,3-dihydro-1-benzoxepin-8-ol], the IC50 in test [1] is 70 nM; in test [2] it was 777 nM; in test [3], 1190 nM. Besides, the DC50 on ERα in MCF7 cells was 18 nM. Further, the “% Degradation at 3 μM” value on ERα in MCF7 cells is listed as 73%.

Turning to `Oc1ccc2c(c1F)OCCC(c1ccc3cc[nH]c3c1)=C2c1ccc(O[C@H]2CCN(CCCF)C2)cc1` [Example 131, 9-fluoro-5-[4-[(3S)-1-(3-fluoropropyl)pyrrolidin-3-yl]oxyphenyl]-4-(1H-indol-6-yl)-2,3-dihydro-1-benzoxepin-8-ol], the IC50 was 19 nM in test [1], 276 nM in test [2] and 340 nM in test [3]. On ERα in MCF7 cells, the DC50 turned out to be 3 nM. At ERα in MCF7 cells, the “% Degradation at 3 μM” value is 83%.

As to `Oc1ccc2c(c1F)OCCC(c1ccc3c(c1)NCC3)=C2c1ccc(O[C@H]2CCN(CCCF)C2)cc1` [Example 132, 9-fluoro-5-[4-[(3S)-1-(3-fluoropropyl)pyrrolidin-3-yl]oxyphenyl]-4-indolin-6-yl-2,3-dihydro-1-benzoxepin-8-ol], the results for the IC50 in test [1], in test [2] and in test [3] were 28 nM, 334 nM and 473 nM, respectively. For the same compound, the DC50 on ERα in MCF7 cells came to 2 nM. Also, the “% Degradation at 3 μM” value at ERα in MCF7 cells was determined as 88%.

`Oc1ccc2c(c1F)OCCC(c1cccc3[nH]ccc13)=C2c1ccc(O[C@H]2CCN(CCCF)C2)cc1` [Example 133, 9-fluoro-5-[4-[(3S)-1-(3-fluoropropyl)pyrrolidin-3-yl]oxyphenyl]-4-(1H-indol-4-yl)-2,3-dihydro-1-benzoxepin-8-ol]: the IC50 in test [1] was 4 nM; in test [2], 39 nM; in test [3], 64 nM. Besides, on ERα in MCF7 cells, the DC50 was 2 nM. Moreover, the “% Degradation at 3 μM” value on ERα in MCF7 cells was determined as 83%.

With `Oc1ccc2c(c1F)OCCC(c1cccc3c1CCN3)=C2c1ccc(O[C@H]2CCN(CCCF)C2)cc1` [Example 134, 9-fluoro-5-[4-[(3S)-1-(3-fluoropropyl)pyrrolidin-3-yl]oxyphenyl]-4-indolin-4-yl-2,3-dihydro-1-benzoxepin-8-ol], the IC50 in test [1] came to 19 nM; in test [2], 225 nM; in test [3], 328 nM. The DC50 at ERα in MCF7 cells was determined as 3 nM. At ERα in MCF7 cells, the “% Degradation at 3 μM” value amounted to 85%.

With `Cc1cc2c(cc1O)OCCC(c1cccc(Cl)c1C)=C2c1ccc(O[C@H]2CCN(CCCF)C2)cc1` [Example 135, 4-(3-chloro-2-methyl-phenyl)-5-[4-[(3S)-1-(3-fluoropropyl)pyrrolidin-3-yl]oxyphenyl]-7-methyl-2,3-dihydro-1-benzoxepin-8-ol], the IC50 in test [1] amounted to 21 nM; in test [2], 352 nM; in test [3] it was 591 nM. Also, the DC50 on ERα in MCF7 cells was determined as 3 nM. For the same compound, the “% Degradation at 3 μM” value on ERα in MCF7 cells was determined as 87%.
